Results as given in article PMC8624998, “Synthesis and Antiproliferative Evaluation of 3-Chloroazetidin-2-ones with Antimitotic Activity: Heterocyclic Bridged Analogues of Combretastatin A-4” (Pharmaceuticals, 2021).
Marks after values point to notes of the source that are not given here.

Test system: MCF-7 cells
Test: Lactate dehydrogenase (LDH) assay for cytotoxicity
Format: cell-based
Conditions: Homo sapiens, MCF7; MCF-7, compound concentration 10 μM, 24 h; read-out: Lactate Dehydrogenase assay: % cell lysis (cell death)
Experimental: The toxicity and selectivity of 10n towards normal cells was investigated in the non-tumourigenic cell line HEK-293T (normal human epithelial embryonic kidney cells). […] The cytotoxic effect of selected 3-chloro-β-lactams 10e, 10f, 10i, 10n and 3,3-dichloro-β-lactams 11e and 11n in MCF-7 cells was initially determined using the lactate dehydrogenase (LDH) assay.
The cytotoxicity of selected compounds was determined using the CytoTox 96 non-radioactive cytotoxicity assay (Promega Corporation, Madison, WI, USA). Briefly, MCF-7 cells were seeded in a 96-well plate (200 μL per well), at a density of 2.5 × 10^4 cells/mL, and incubated for 24 h. The cells were then treated with selected β-lactam compounds as described above for the cell viability assay. […] Supernatant (50 μL) was removed from each well to a 96-well plate. Reconstituted ‘CytoTox 96® Reagent (50 μL) was added to each well and the plate was placed in the dark at 20 °C for 30 min. ‘Stop solution’ (50 μL) was added to each well and the samples were analysed at 490 nm using a Dynatech MR5000 plate reader. The percentage cell death at 10 μM was calculated.

Compound	cytotoxicity at 10 µM
CCOc1ccc([C@H]2[C@H](Cl)C(=O)N2c2cc(OC)c(OC)c(OC)c2)cc1 (relative stereo) [Compound 10f]	4%
COc1ccc(C(=O)c2cc(OC)c(OC)c(OC)c2)cc1O [Compound 3a, phenstatin, reference compound]	12%
COc1cc(N2C(=O)C(Cl)C2c2ccc(SC)cc2)cc(OC)c1OC (stereo not shown) [Compound 10i]	3%
COc1cc(N2C(=O)C(Cl)C2c2cccc3ccccc23)cc(OC)c1OC (stereo not shown) [Compound 10j, 3-Chloro-1-(3,4,5-trimethoxyphenyl)-4-(naphthalen-1-yl)azetidin-2-one]	4%

Test system: not given
Test: not given
Conditions: not given

Compound	melting point
CCOc1ccc(N2C(=O)C(Cl)(Cl)C2c2cc(OC)c(OC)c(OC)c2)cc1 (stereo not shown) [Compound 13b, 3,3-Dichloro-1-(4-ethoxyphenyl)-4-(3,4,5-trimethoxyphenyl)azetidin-2-one]	133 to 134 °C
COc1cc(C2N(c3ccc(SC)cc3)C(=O)C2(Cl)Cl)cc(OC)c1OC (stereo not shown) [Compound 13c, 3,3-Dichloro-1-(4-(methylthio)phenyl)-4-(3,4,5-trimethoxyphenyl) azetidin-2-one]	117 to 119 °C
COc1ccc(C2C(Cl)C(=O)N2c2cc(OC)cc(OC)c2)cc1 (stereo not shown) [Compound 14a, 3-Chloro-1-(3,5-dimethoxyphenyl)-4-(4-methoxyphenyl)azetidin-2-one]	93 to 94 °C
CCOc1ccc(C2C(Cl)C(=O)N2c2cc(OC)cc(OC)c2)cc1 (stereo not shown) [Compound 14b, 3-Chloro-1-(3,5-dimethoxyphenyl)-4-(4-ethoxyphenyl)azetidin-2-one]	129 to 130 °C

Test system: MDA-MB-231 cells
Test: Cell viability assay, antiproliferative activity
Format: cell-based
Conditions: Homo sapiens; MDA-MB-231, 72 h; 10e and 11n results from NCI; read-out: Antiproliferative Activity IC50 MDA-MB-231, 72 h
Description: Selected β-lactam compounds were next evaluated in the triple negative cell line MDA-MB-231 (Table 4). […] These cancers are difficult to treat since they are generally not responsive to hormone therapies such as the selective oestrogen receptor modulator (SERM) tamoxifen, or aromatase inhibitors such as anastrozole, or to the monoclonal antibody Herceptin, which targets the HER2 receptor. There are fewer treatment options available for TNBC compared with ER+, PR+ and HER2+ breast cancers and the prognosis is poorer. […]. The human breast carcinoma cell line MCF-7 was purchased from the European Collection of Animal Cell Cultures (ECACC). Triple negative breast cancer Hs578T cells and its invasive variant Hs578Ts(i)8 were a kind gift from Dr. Susan McDonnell, School of Chemical and Bioprocess Engineering, University College Dublin. U266 cells were a gift from Dr. Tony McElligott, School of Medicine, St James’s Hospital, Trinity College Dublin. HT-29 cells were purchased from the European Collection of Cell Cultures (originating from a human adenocarcinoma of the colon). The human breast carcinoma cell line MDA-MB-231 and the HL-60 cells derived from a patient with acute myeloid leukaemia were both obtained from ECACC (Salisbury, UK). The SW-480 cells were a kind gift from Dr. Brian Flood, School of Biochemistry and Immunology, Trinity College Dublin. HEK-293T (normal epithelial embryonic kidney cells) were cultured in Dulbecco’s Modified Eagle’s Medium (DMEM) with GlutaMAXTM-I in the absence of non-essential amino acids. Human breast cancer MCF-7 cells and multiple myeloma U266 cells were cultured in Minimum Essential Media (MEM) with GlutaMAX™-I, supplemented with 1% (v/v) non-essential amino acids, 10% 2(v/v) foetal bovine serum (FBS) and 1% (v/v) penicillin/streptomycin 5000 U/mL. MDA-MB-231 cells were maintained in DMEM supplemented with 10% (v/v) foetal bovine serum, 2 mM L-glutamine and 100 μg/mL penicillin/streptomycin (complete medium). Colon cancer HT-29 and SW-480 and triple negative breast cancer Hs578T and its invasive variant Hs578T8i were cultured in DMEM with GlutaMAX™-I, with the same supplement in the absence of non-essential amino acids. Leukaemia HL-60 cancer cells were cultured in Roswell Park Memorial Institute Media (RPMI-1640) with GlutaMAX™-I, supplemented with 10% FCS media, and 100 μg/mL penicillin/streptomycin as above. Cell numbers were monitored using a haemocytometer. Cell culture flasks were incubated in a humidified incubator (5% CO2/95% air) at 37 °C. All cell lines were sub-cultured three times per week with trypsinisation using TrypLE Express (1X) required for adherent cell lines.
(§1) . All stock solutions and serial dilution in ethanol/DMSO were stored at -20 °C. All cells were seeded at a density of 2.5 × 10^4 cells/mL in a 96-well plate (200 μL per well). The cells were incubated in a […] atmosphere at 37 °C for 24 h, then treated with test compound (2 μL of stock solutions per 200-microlitre well) in ethanol to obtain a concentration range of 1 nM–200 μM for the study. The plates were then re-incubated for a further 72 h. Control wells contained an equivalent volume of the vehicle ethanol or DMSO (1% v/v). MTT cell viability assay: The culture medium was removed, and the cells were washed with phosphate buffered saline (PBS, […]). MTT (dissolved in PBS, […]) was added to obtain a final concentration of MTT (1 mg/mL). Cells were incubated at 37 °C for 3 h in the dark. Solubilisation was commenced by the addition of DMSO ([…]) and the cells were maintained at 20 °C in the dark for 20 min before reading the absorbance to ensure complete colour diffusion. The absorbance value of control cells (no added compound) was set to 100% cell viability and absorbance versus cell density per well was determined to assess cell viability using Graph-Pad Prism software. […]

Compound	IC50
CCOc1ccc([C@H]2[C@H](Cl)C(=O)N2c2cc(OC)c(OC)c(OC)c2)cc1 (relative stereo) [Compound 10f]	78 ± 8 nM
COc1cc(N2C(=O)C(Cl)C2c2ccc3ccccc3c2)cc(OC)c1OC (stereo not shown) [Compound 10k, 3-Chloro-1-(3,4,5-trimethoxyphenyl)-4-(naphthalen-2-yl)azetidin-2-one]	205 ± 34 nM
CCOc1ccc([C@@H]2N(c3cc(OC)c(OC)c(OC)c3)C(=O)C2(Cl)Cl)cc1 [Compound 11f]	389 ± 50 nM

Test system: MCF-7 cells
Test: not given
Conditions: MCF-7, 72 h; previously reported compounds, footnote g; cited from earlier work

Compound	IC50
CCOc1ccc([C@H]2[C@H](Cl)C(=O)N2c2cc(OC)c(OC)c(OC)c2)cc1 (relative stereo) [Compound 10f]	130 ± 17 nM
COc1cc(N2C(=O)C(Cl)C2c2ccc(SC)cc2)cc(OC)c1OC (stereo not shown) [Compound 10i]	73 ± 4 nM
CCOc1ccc([C@@H]2N(c3cc(OC)c(OC)c(OC)c3)C(=O)C2(Cl)Cl)cc1 [Compound 11f]	164 ± 15 nM
COc1cc(N2C(=O)C(Cl)(Cl)C2c2ccc(SC)cc2)cc(OC)c1OC (stereo not shown) [Compound 11i]	291 ± 30 nM

Same assay, conditions: MCF-7, 72 h; previously reported compounds, footnote h; cited from earlier work

Compound	IC50
COc1ccc(C2C(Cl)C(=O)N2c2cc(OC)c(OC)c(OC)c2)cc1Cl (stereo not shown) [Compound 10o]	433 ± 50 nM
COc1ccc(C2N(c3cc(OC)c(OC)c(OC)c3)C(=O)C2(Cl)Cl)cc1C (stereo not shown) [Compound 11o]	747 ± 60 nM

Test system: MCF-7 cells
Test: Cell viability assay (MTT/AlamarBlue), antiproliferative activity
Format: cell-based, human
Conditions: Homo sapiens, MCF7, 72 h, MCF-7, 72 h; read-out: IC50 (MCF-7, 72 h)
Description: […]. The introduction of the halogen substituent at C-3 was examined in an effort to investigate the effect on the activity of this substituent, and subsequently optimising the cytotoxic effects against MCF-7 human breast cancer cells.
(§2) The human breast carcinoma cell line MCF-7 was purchased from the European Collection of Animal Cell Cultures (ECACC). Triple negative breast cancer Hs578T cells and its invasive variant Hs578Ts(i)8 were a kind gift from Dr. Susan McDonnell, School of Chemical and Bioprocess Engineering, University College Dublin. U266 cells were a gift from Dr. Tony McElligott, School of Medicine, St James’s Hospital, Trinity College Dublin. HT-29 cells were purchased from the European Collection of Cell Cultures (originating from a human adenocarcinoma of the colon). The human breast carcinoma cell line MDA-MB-231 and the HL-60 cells derived from a patient with acute myeloid leukaemia were both obtained from ECACC (Salisbury, UK). The SW-480 cells were a kind gift from Dr. Brian Flood, School of Biochemistry and Immunology, Trinity College Dublin. HEK-293T (normal epithelial embryonic kidney cells) were cultured in Dulbecco’s Modified Eagle’s Medium (DMEM) with GlutaMAXTM-I in the absence of non-essential amino acids. Human breast cancer MCF-7 cells and multiple myeloma U266 cells were cultured in Minimum Essential Media (MEM) with GlutaMAX™-I, supplemented with 1% (v/v) non-essential amino acids, 10% 2(v/v) foetal bovine serum (FBS) and 1% (v/v) penicillin/streptomycin 5000 U/mL. MDA-MB-231 cells were maintained in DMEM supplemented with 10% (v/v) foetal bovine serum, 2 mM L-glutamine and 100 μg/mL penicillin/streptomycin (complete medium). Colon cancer HT-29 and SW-480 and triple negative breast cancer Hs578T and its invasive variant Hs578T8i were cultured in DMEM with GlutaMAX™-I, with the same supplement in the absence of non-essential amino acids. Leukaemia HL-60 cancer cells were cultured in Roswell Park Memorial Institute Media (RPMI-1640) with GlutaMAX™-I, supplemented with 10% FCS media, and 100 μg/mL penicillin/streptomycin as above. Cell numbers were monitored using a haemocytometer. Cell culture flasks were incubated in a humidified incubator (5% CO2/95% air) at 37 °C. All cell lines were sub-cultured three times per week with trypsinisation using TrypLE Express (1X) required for adherent cell lines.
as §1, with “software. AlamarBlue cell viability assay: Cells were seeded in 96-well plates (e.g., MCF-7, 5 × 10^3 cells/well) and (HT-29 cells, 1 × 10^3 cells/well) and (HL-60 cells, 1 × 10^4 cells/well) with a total volume per well of 200 µL. After 24 h, cells were treated in triplicate with serial dilutions of CA-4 or β-lactam analogues (0.001–100 μM), medium alone or vehicle (1% ethanol (v/v)).” for “software.”

Compound	IC50
COc1cc(N2C(=O)C(Cl)C2c2cccc3ccccc23)cc(OC)c1OC (stereo not shown) [Compound 10j, 3-Chloro-1-(3,4,5-trimethoxyphenyl)-4-(naphthalen-1-yl)azetidin-2-one]	14700 ± 2260 nM
COc1cc(N2C(=O)C(Cl)C2c2ccc3ccccc3c2)cc(OC)c1OC (stereo not shown) [Compound 10k, 3-Chloro-1-(3,4,5-trimethoxyphenyl)-4-(naphthalen-2-yl)azetidin-2-one]	200 nM
COc1ccc(C2C(Cl)C(=O)N2c2cc(OC)cc(OC)c2)cc1 (stereo not shown) [Compound 14a, 3-Chloro-1-(3,5-dimethoxyphenyl)-4-(4-methoxyphenyl)azetidin-2-one]	680 ± 160 nM
CCOc1ccc(C2C(Cl)C(=O)N2c2cc(OC)cc(OC)c2)cc1 (stereo not shown) [Compound 14b, 3-Chloro-1-(3,5-dimethoxyphenyl)-4-(4-ethoxyphenyl)azetidin-2-one]	45 ± 10 nM
CCOc1ccc(C2C(Br)C(=O)N2c2cc(OC)c(OC)c(OC)c2)cc1 (stereo not shown) [Compound 16b, 3-Bromo-4-(4-ethoxyphenyl)-1-(3,4,5-trimethoxyphenyl)azetidin-2-one]	1140 ± 300 nM

Same assay, conditions: MCF-7, 72 h, 10 μM

Compound	inhibition of cell viability at a concentration of 10 μM
CCOc1ccc(N2C(=O)C(Cl)(Cl)C2c2cc(OC)c(OC)c(OC)c2)cc1 (stereo not shown) [Compound 13b, 3,3-Dichloro-1-(4-ethoxyphenyl)-4-(3,4,5-trimethoxyphenyl)azetidin-2-one]	40% (10 μM)^c
COc1cc(C2N(c3ccc(SC)cc3)C(=O)C2(Cl)Cl)cc(OC)c1OC (stereo not shown) [Compound 13c, 3,3-Dichloro-1-(4-(methylthio)phenyl)-4-(3,4,5-trimethoxyphenyl) azetidin-2-one]	20% (10 μM)^c
COc1ccc(C2C(Br)C(=O)N2c2cc(OC)c(OC)c(OC)c2)cc1O (stereo not shown) [Compound 16j, 3-Bromo-4-(3-hydroxy-4-methoxyphenyl)-1-(3,4,5-trimethoxyphenyl) azetidin-2-one]	40% (10 μM) ^c,i

Same assay, conditions: MCF-7, 72 h; read-out: IC50 (MCF-7, 72 h)

Compound	IC50
COc1cc(N2C(=O)C(Cl)C2c2ccc3ccccc3c2)cc(OC)c1OC (stereo not shown) [Compound 10k, 3-Chloro-1-(3,4,5-trimethoxyphenyl)-4-(naphthalen-2-yl)azetidin-2-one]	202 ± 15 nM

Test system: SW480 cells
Test: Cell viability assay, antiproliferative activity
Format: cell-based, human
Conditions: SW480, 10 μM
Experimental: […]. The corresponding values for 10e in these cell lines were 161 nM (HL-60), 55 nM (SW480) and 135 nM (HT-29). […] […]. SW480 colon cells expressed low levels of the UDP-glucuronosyltransferase (UGT) protein compared to expression levels in HT-29 cells. […] […].
as §2
as §1, with “software. AlamarBlue cell viability assay: Cells were seeded in 96-well plates (e.g., MCF-7, 5 × 10^3 cells/well) and (HT-29 cells, 1 × 10^3 cells/well) and (HL-60 cells, 1 × 10^4 cells/well) with a total volume per well of 200 µL. After 24 h, cells were treated in triplicate with serial dilutions of CA-4 or β-lactam analogues (0.001–100 μM), medium alone or vehicle (1% ethanol (v/v)).” for “software.”

Compound	SW480 inhibition of cell viability
CCOc1ccc(C2C(Br)C(=O)N2c2cc(OC)c(OC)c(OC)c2)cc1 (stereo not shown) [Compound 16b, 3-Bromo-4-(4-ethoxyphenyl)-1-(3,4,5-trimethoxyphenyl)azetidin-2-one]	50%
COc1ccc(C2C(Br)C(=O)N2c2cc(OC)c(OC)c(OC)c2)cc1O (stereo not shown) [Compound 16j, 3-Bromo-4-(3-hydroxy-4-methoxyphenyl)-1-(3,4,5-trimethoxyphenyl) azetidin-2-one]	48%
